Source: paper PMC10458444 (Viruses, 2023)
Structures can show the parent of a compound that is named as a salt.

Key:
[1] = test system: SARS-CoV-2 Omicron BA.4 PsV; type: cell-based
[2] = test system: MERS-CoV PsV; assay: microbe, parasite or virus in culture; type: cell-based; details: Middle East respiratory syndrome-related coronavirus, 48 h, read-out: IC50, inhibition of MERS-CoV PsV infection
[3] = Cytotoxicity assay (CCK-8); details: human, HEK293T-hACE2 cells
[4] = test system: SARS-CoV PsV; assay: microbe, parasite or virus in culture; type: cell-based; details: Severe acute respiratory syndrome coronavirus, 48 h, read-out: IC50, inhibition of SARS-CoV PsV infection
[5] = test system: SARS-CoV-2 (D614) PsV; assay: microbe, parasite or virus in culture; type: cell-based; details: for IC50: Severe acute respiratory syndrome coronavirus 2, 48 h, read-out: IC50, inhibition of SARS-CoV-2 (D614) PsV infection
[6] = test system: SARS-CoV-2 PsV (D614); assay: Time-of-addition assay; type: cell-based; details: compound added 8 h after the addition of SARS-CoV-2 PsV
[7] = test system: SARS-CoV-2 spike-pseudovirus (D614); set-up: species or system K18-hACE2 transgenic mice; details: mouse, in vivo
[8] = target: SARS-CoV-2 spike protein (Severe acute respiratory syndrome coronavirus 2, UniProt P0DTC2); type: cell-based; details: co-incubated with PsV 1 h, HEK293T-hACE2 cells 12 h, Western blotting

Row | Compound | inhibitory activity in primary screening against Omicron (BA.4) PsV [1] | IC50 [2] | CC50 at 48 h [3] | IC50 [4] | SI, selectivity index = CC50/IC50 [5] | IC50 [5] | inhibitory activity, time of addition [6] | infection, luciferase gene expression in lung tissues (RT-qPCR) [7] | viral load, HIV-1 Gag p55 and p24 protein levels in lung [7] | effect on cleavage of S protein in cells (full-length S protein level) [8]
1 | CC(=O)c1ccc2c(c1)N(CCCN(C)C)c1ccccc1S2 [Acepromazine maleate, acepromazine maleate] | significant inhibitory activities | 1580 nM | 93300 ± 11500 nM | 1390 nM | 51.179 | 1820 ± 230 nM |  |  |  | 
2 | CC(CN(C)C)CN1c2ccccc2Sc2ccccc21 (stereo not drawn) [Alimemazine hemitartrate, alimemazine hemitartrate] |  | 1220 nM | 53400 ± 10900 nM | 356 nM | 111.929 | 477 ± 124 nM |  |  |  | 
3 | CCCCCCCCCC(=O)OCCN1CCN(CCCN2c3ccccc3Sc3ccc(C(F)(F)F)cc32)CC1 [Fluphenazine decanoate, fluphenazine decanoate] |  | 2640 nM | 61600 ± 28800 nM | 3960 nM | 15.775 | 3900 ± 1090 nM |  |  |  | 
4 | OCCN1CCN(CCCN2c3ccccc3Sc3ccc(Cl)cc32)CC1 [Perphenazine, perphenazine] | significant inhibitory activities | 1280 nM | 18100 ± 1450 nM | 1160 nM | 21.805 | 831 ± 120 nM |  |  |  | 
5 | CN1CCN(CCCN2c3ccccc3Sc3ccc(Cl)cc32)CC1 [Prochlorperazine maleate, prochlorperazine maleate] |  |  | 85200 ± 13900 nM |  |  |  | about 20% | significantly inhibited | significant reduction in the viral load | 
6 | teicoplanin |  |  |  |  |  |  |  |  |  | prevented the cleavage of S protein
